Assay results: PMC12706794, “Identification and Characterization of a Small-Molecule Inhibitor of the Pseudomonas aeruginosa SOS Response” (ACS Infectious Diseases, 2025)

Experiments:
RecAPa [1] = target: T1, RecAPa (Pseudomonas aeruginosa, UniProt P08280); assay: Isothermal titration calorimetry on RecAPa; type: binding, P. aeruginosa
T1 construct: made in house; host or cells: E. coli BL21(DE3)
Description: To investigate deeper the binding of A12 to the two members of the P. aeruginosa SOS complex, ITC was performed on RecAPa and LexAPa ^S125A (Figure D,E). The integrated binding isotherms of both proteins were best fitted by a “one set of sites” model.
64 μM RecAPa and 58.5 μM LexAPa ^S125A were titrated with the selected compound (2.5 mM solution) using a Microcal PEAQ-ITC instrument (Malvern Panalytical) at 25 °C with a stirring rate of 750 rpm. Proteins and the ligand were dissolved in ITC Buffer (20 mM Tris–HCl, 150 mM NaCl, 5% v/v DMSO, pH 7.5). An initial 0.4 μL injection (excluded from data analysis) was followed by 24 injections of 1.5 μL with a spacing of 150 s between each addition. Blank experiments were performed by injecting the titrant compound in a protein-devoid ITC Buffer. Blank curves were subtracted from all of the experiments. Data were analyzed by using the MicroCal PEAQ-ITC Evaluation software (Malvern Panalytical). Integrated heat signals were fitted by a “one set of sites” binding model to obtain enthalpy changes (ΔH), dissociation constants (K D), and stoichiometry of binding.

A549 cells = assay: Cytotoxicity assessment by MTT assay, A549; type: cell-based, Human; conditions: combination of ciprofloxacin 0.5 μg/mL and A12 100 μg/mL, 3 h
Description: (§1) A549 cells were seeded in flat-bottom 96-well plates at 5 × 10^4 cells/well. THP-1 monocytes were differentiated into macrophages using PMA as described above, rested in PMA-free medium, detached by trypsinization, and seeded at 5 × 10^4 cells/well. Plates were incubated overnight to allow cell attachment. […] Test medium was then removed and replaced with fresh medium containing 0.5 mg/mL 3-(4,5-dimethylthiazol-2-yl)-2,5-diphenyltetrazolium bromide (MTT). After a 2 h incubation, the medium was discarded, formazan crystals were solubilized with 100 μL of DMSO, and absorbance was measured at 570 nm using a spectrophotometer (Varioskan LUX Multimode Microplate Reader, Thermo Fisher Scientific). Cell viability was expressed as a percentage relative to the untreated controls.

[2] = test system: P. aeruginosa PAO1 on A549 lung epithelial cells; assay: P. aeruginosa PAO1 colonization of A549 lung epithelial cells; type: cell-based
RecAPa [3] = target: T1, RecAPa; assay: ESI-MS analysis of RecAPa preincubated with A12; type: binding, P. aeruginosa; conditions: 2 mM A12, 2 h at 25 °C; condensation, Lys285
Description: (§2) Then, ESI-MS analysis was carried out on both RecAPa and LexAPa alone and preincubated with A12 (referred to as RecAPa-A12 and LexAPa-A12, respectively).
(§3) MS analysis was carried out on 5 μL samples of compound A12 (2 mM), of the proteins 6His-LexAPa and 6His-RecAPa (50 μM), and of the same proteins incubated with 2 mM A12 (2 h incubation at 25 °C, 10% v/v DMSO in 100 mM NaHCO3 pH 7.0). Aliquots of the latter samples were treated with 5 mM dithiothreitol (DTT) for 1 h at 25 °C before being buffer-exchanged in 100 mM NaHCO3 at pH 7.0. Samples were analyzed by an electrospray ionization (ESI) mass spectrometer equipped with a Xevo G2-XS ESI-Q-TOF mass spectrometer (Waters Corporation, Milford, Massachusetts, USA). Measurements were carried out at 1.5–1.8 kV capillary voltage and 30–40 V cone voltage.
(§4) Tryptic digestion was obtained at a 1:20 trypsin to protein ratio (by weight) after the incubation of the proteins (6His-LexAPa and 6His-RecAPa) with chemical compound A12. The reaction was left at 37 °C overnight and then stopped by freezing at – 20 °C. Proteolytic mixtures were analyzed by LC–MS, using an Agilent AdvanceBio Peptide Map column (2.1 × 150 mm × 2.7 μm; Santa Clara, CA, USA) connected to an Acquity H-Class instrument (Waters Corporation, Milford, Massachusetts, USA). […]

[4] = test system: THP-1-derived macrophages; assay: Cytotoxicity assessment by MTT assay, THP-1-derived macrophages; type: cell-based, Human; conditions: combination of ciprofloxacin 0.5 μg/mL and A12 100 μg/mL, 3 h
Description: as §1

[5] = ESI-MS analysis of A12 in buffer; type: physicochemical; conditions: 2 mM A12 in FP assay buffer, no DTT
Description: The same analysis was conducted after treatment of A12 with 2 mM DTT (Figure B). In this sample, the MS signals corresponding to the disulfide adduct were absent, leading to the conclusion that the dimerization of A12 by the formation of a disulfide bridge can occur under physiological conditions. When in monomeric form, the compound is likely degraded and/or not detectable by MS under the tested experimental conditions.
as §3

LexAPa = target: T2, LexAPa (Pseudomonas aeruginosa, UniProt P37452); assay: ESI-MS analysis of LexAPa preincubated with A12; type: binding, P. aeruginosa; conditions: 2 mM A12, 2 h at 25 °C; disulfide bond at Cys104, lost with 5 mM DTT
T2 construct: different LexAPa variants (FlAsH-LexAPa ^CTD vs full-length LexAPa) were used in the two assays; made in house; host or cells: E. coli BL21(DE3)
T2 sequence (P37452 whole entry): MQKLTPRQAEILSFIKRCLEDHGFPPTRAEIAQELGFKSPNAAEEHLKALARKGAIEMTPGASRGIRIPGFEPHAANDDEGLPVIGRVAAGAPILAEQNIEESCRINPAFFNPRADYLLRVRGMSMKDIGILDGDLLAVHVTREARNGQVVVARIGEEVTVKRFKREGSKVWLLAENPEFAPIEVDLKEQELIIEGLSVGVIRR
Description: as §2, §3, §4

[6] = combination of ciprofloxacin 0.5 μg/mL and A12 100 μg/mL

T1 sequence (P08280 whole entry): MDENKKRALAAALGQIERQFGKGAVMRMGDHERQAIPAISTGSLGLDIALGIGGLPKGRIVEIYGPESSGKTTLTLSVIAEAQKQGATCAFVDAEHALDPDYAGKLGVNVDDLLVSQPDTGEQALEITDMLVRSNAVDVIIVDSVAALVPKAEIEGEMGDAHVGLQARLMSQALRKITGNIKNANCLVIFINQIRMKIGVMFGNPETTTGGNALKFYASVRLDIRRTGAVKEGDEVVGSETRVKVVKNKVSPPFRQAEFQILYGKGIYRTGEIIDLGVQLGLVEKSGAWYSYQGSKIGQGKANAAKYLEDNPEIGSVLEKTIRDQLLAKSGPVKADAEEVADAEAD

Structure (SMILES): O=C(O)CCNc1ccccc1S [A12, 3-(2-sulfanylanilino)propanoic acid]
- Kd (RecAPa [1]): 18 ± 3 µM
- Cell viability compared to the untreated control (A549 cells): higher than 80%
- Intracellular (internalized) burden of PAO1 in A549 cells ([2]; A12 100 μg/mL alone): reduced the internalized bacterial growth
- Intracellular (internalized) burden of PAO1 in A549 cells [2, 6]: synergized with ciprofloxacin
- Total (adherent + intracellular) burden of PAO1 on A549 lung cells [2, 6]: significantly reduced colonization
- Mass difference of A12-modified RecAPa versus unmodified protein (RecAPa [3]): 179 Da
- Cell viability compared to the untreated control [4]: higher than 80%
- Form of A12 in solution by MS [5]: mainly exists as a disulfide-bridged self-dimer in solution
- Mass difference of A12-modified LexAPa versus unmodified protein (LexAPa): 195 Da
